# Measurements from patent publication US20070087988A1, “Hematopoietic progenitor kinase 1 for modulation of an immune response” (New York University, priority 2005, published 2007).
# Experiments:
# murine HPK1 = assay: IVK assay of HA-tagged murine HPK1 (wild type and mutants) transfected into Jurkat cells; assay type: cell-based, mouse; details: Jurkat transfectants
# Source text: The pcDNA3 vector containing mouse cDNA encoding the HA-tagged wild type murine HPK1 and a proline-rich-deleted construct were constructed by Dr. F. Kiefer (Liu et al., 2000, J. Immunol. 165:1417). QuickChange™ mutagenesis system was used to alter the wild type HPK1 construct to encode the desired point mutations (Stratagene, La Jolla, Calif.). Mutated constructs were sequenced to verify the presence of the desired mutation and for the absence of PCR-generated mutations.
# Jurkat T cells (1.5×10^7) were transfected as described in (Chang et al., 1998, Mol. Cell. Biol. 18:4986). Whole cell lysates derived from resting or stimulated transfectants were subjected to immunoprecipitations by the indicated antibodies, and were subjected to in vitro kinase reactions as described in (Kiefer et al., 1996, EMBO J. 15:7013 and (Sawasdikosol et al., 2003, Blood 101:3687). Anti-murine HPK1 #7 antibody was used to detect the ectopically expressed HPK wild type and mutant murine HPK1.
# To assess the role of the proline-rich motifs in PGE2-induced HPK1 activation, cells were transfected with constructs that encoded either the HA-tagged wild type HPK1 or a mutant form in which the P1, P2, and P4 proline-rich motifs (HA-ΔP-HPK1) were deleted (FIG. 8A). Transfectants were left untreated, stimulated by 10 pM of PGE2, or stimulated by TCR crosslinking. The ectopically expressed HPK1 proteins were subjected to anti-HA immunoprecipitation and were subjected to IVK assay. […] This limits the possibility that adapter proteins play a role in this process.
# To assess the importance of arginine 168, arginine 169 and serine 171 in PGE2-induced HPK1 activation, a panel of mutant HPK1 expression constructs that encode a point mutation at each of these amino acids was created. In these mutants, arginines were changed to lysines and serine was changed to alanine. These mutant HPK1 constructs were transfected into Jurkat cells and the ectopically expressed HA-tagged HPK1 were immunoprecipitated from resting or PGE2 stimulated cells.
# CD4+ T cells = assay: Intracellular IL-2 staining of CD4+ T cells (FACS); assay type: cell-based, mouse
# Method: Purified naïve wild type and HPK1^−/− splenocytes were expanded with 10 μg/ml ConA for three days with or without 10 nM PGE2. 10^6 cells were seeded onto a 96-well plate and cells were either left unstimulated or were stimulated with 1 μg/ml anti-CD3 and anti-CD28 for 6 hours in the presence of GolgiStop™ (BD Pharmingen). Cells were washed with buffer containing 0.1% saponin and 0.1% BSA followed by incubation with anti-IL-2-PE for 30 min. IL-2 levels were read by flow cytometry using FACSCalibur™.
# RBC-lysed wild type and HPK1^−/− splenocytes were stimulated with or without 1 nM PGE2 and 2 μg/ml anti-CD3 plus 1 μg/ml anti-CD28 for 48 hours in the presence of GolgiStop™ (BD Pharmingen) for the last five hours of culture. For profiling experiments, RBC-lysed splenocytes were stimulated with anti-CD3 and anti-CD28 for 24 hours, and GolgiStop was added in the last five hours. Cells were then fixed with 2% paraformaldehyde followed by permeabilization with a buffer containing 0.1% saponin and 0.1% BSA and the different conjugated antibodies for 30 min. Cytokine levels were read by flow cytometry using FACSCalibur™ and analyzed using Flowjo software.
# T cells = assay: T cell proliferation on anti-CD3/anti-CD28 TCR crosslinking, 3H-thymidine; assay type: cell-based, mouse
# Method: Naïve T cells (2×10^5) were seeded onto a 96-well plate and incubated with 1 μg/ml anti-CD3 and anti-CD28 or 10 μg/ml ConA for three days in the presence or absence of 100 pM PGE2 and then pulsed with 1 μCi/well ^3H thymidine (MP Biomedicals, Irvine, Calif.) for 18 hours before harvesting.
# T cells were negatively selected using the Pan T cell isolation kit (Miltenyi Biotech Inc., Auburn, Calif.). […] 2×10^5 Naïve T cells were seeded on a 96-well plate and incubated with various dilutions of anti-CD3 and 1 μg/ml of anti-CD28 for 72 hours in the presence or absence of 1 nM PGE2 and then pulsed with 1 μCi/well ^3H thymidine (MP Biomedicals, Irvine, Calif.) for 18 hours before harvest.
# EP2 receptor = target: T1, EP2 receptor (Homo sapiens, UniProt P43116); assay: IVK assay of HA-HPK1 from 293-EP2 transfectants; assay type: cell-based; details: PGE2 stimulation
# T1 construct: expressed in transfected cells; host or cells: HEK 293 (293-EP2), also transiently transfected with HA-HPK1
# EP4 receptor = EP4 receptor (Homo sapiens, UniProt P35408); assay: IVK assay of HA-HPK1 from 293-EP4 transfectants; details: PGE2 stimulation
# tyrosine phosphorylation = assay: Anti-phosphotyrosine immunoblotting of Jurkat lysates and HPK1 immunoprecipitates; assay type: cell-based, human; details: 10 pM PGE2
# Method: Cells were lysed in a buffer containing 1% Nonidet P-40 (NP-40) and 50 mM Tris, pH 7.6, 150 mM NaCl, 1 mM […], 10 mM NaF, 10 mM sodium pyrophosphate, 10 μg/ml each of aprotinin and leupeptin, and 2 mM phenylmethylsulfonyl fluoride (PMSF). The lysates were pre-cleared with protein A-Sepharose™ and subsequently, proteins were immunoprecipitated with either 2 μg of anti-Crk antibody or an equal amount of normal rabbit Ig by incubation at 4° C. for two hours. The beads were washed with 0.1% NP-40 in immunoprecipitation wash buffer (150 mM NaCl, 20 mM HEPES, pH 7.4, 10% glycerol, 1 mM […], 5 mM NaF, and 10 μg/ml each of aprotinin and leupeptin), and the bead-bound proteins were separated by SDS-PAGE. The proteins were transferred to a polyvinylidene fluoride (PVDF) membrane, immunoblotted with the indicated antibodies and developed by the enhanced chemiluminescence (ECL) system (Amersham Corp., Arlington Heights, Ill.).
# It has been reported that binding of PGE2 to its GPCR leads to rapid activation of HPK1 kinase activity (Sawasdikosol et al., 2003, Blood 101:3687). […] First, it was assessed whether PGE2 stimulation would induce general tyrosine phosphorylation in the Jurkat T cell line was examined. […]
# [1] = Example 4, 10 nM PGE2, restimulated anti-CD3/anti-CD28
# [2] = Example 4, 100 pM PGE2, three days
# T1 sequence (P43116 whole entry): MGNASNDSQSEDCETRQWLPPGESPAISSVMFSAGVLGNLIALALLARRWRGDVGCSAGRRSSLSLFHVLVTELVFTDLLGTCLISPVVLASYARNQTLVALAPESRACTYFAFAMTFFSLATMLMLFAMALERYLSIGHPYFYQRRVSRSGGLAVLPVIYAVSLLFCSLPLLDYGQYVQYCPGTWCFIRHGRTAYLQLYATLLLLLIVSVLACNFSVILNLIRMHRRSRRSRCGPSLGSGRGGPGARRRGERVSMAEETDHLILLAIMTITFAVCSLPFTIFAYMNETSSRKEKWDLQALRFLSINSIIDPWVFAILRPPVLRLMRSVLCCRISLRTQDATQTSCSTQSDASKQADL
# Sequence of EP4 receptor (P35408 whole entry): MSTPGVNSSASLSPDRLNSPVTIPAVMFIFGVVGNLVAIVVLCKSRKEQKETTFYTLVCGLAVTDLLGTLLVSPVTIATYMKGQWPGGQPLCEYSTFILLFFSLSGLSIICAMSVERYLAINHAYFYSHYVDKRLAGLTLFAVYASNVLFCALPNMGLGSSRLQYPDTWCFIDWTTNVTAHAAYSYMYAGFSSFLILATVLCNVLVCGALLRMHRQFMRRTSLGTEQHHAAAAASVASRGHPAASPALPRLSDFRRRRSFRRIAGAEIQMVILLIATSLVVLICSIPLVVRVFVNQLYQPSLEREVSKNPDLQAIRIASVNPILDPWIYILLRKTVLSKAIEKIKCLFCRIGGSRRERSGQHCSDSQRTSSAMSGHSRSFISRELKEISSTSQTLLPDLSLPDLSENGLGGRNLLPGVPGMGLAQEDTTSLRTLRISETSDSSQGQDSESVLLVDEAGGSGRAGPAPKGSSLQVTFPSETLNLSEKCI
compound,measurement,setting,value
"CCCCC[C@H](O)/C=C/[C@H]1[C@H](O)CC(=O)[C@@H]1C/C=C\CCCC(=O)O [PGE2, prostaglandin E2]",kinase response of HA-HPK1 (wild type),murine HPK1; 10 pM PGE2,responded competently
same,kinase response of HPK1 proline-rich deleted mutant (HA-ΔP-HPK1),murine HPK1; 10 pM PGE2,responded to PGE2 stimulation
same,kinase response of HPK1 serine 171 to alanine mutant to PGE2,murine HPK1; PGE2 stimulated,ablated the response
same,"reduction of responsiveness to PGE2 stimulation, HPK1 arginine to lysine mutation at residue 168 or 169",murine HPK1; PGE2 stimulated,approximately 90%
same,CD4+ HPK1−/− cells still producing IL-2 after PGE2 addition,CD4+ T cells; [1],over 45%
same,wild type cells producing IL-2 after PGE2 addition,CD4+ T cells; [1],less than 10%
same,CD4+ HPK1−/− T cells still producing IL-2 after co-culture with PGE2,"CD4+ T cells; Example 7, 1 nM PGE2, 48 hours",over 22%
same,wild type cells producing IL-2 after co-culture with PGE2,"CD4+ T cells; Example 7, 1 nM PGE2, 48 hours",< 5%
same,"inhibition of proliferation, HPK1−/− T cells, anti-CD3/anti-CD28",T cells; [2],18%
same,"inhibition of proliferation, wild type T cells, anti-CD3/anti-CD28",T cells; [2],~80%
same,"inhibition of proliferation, HPK1−/− T cells, TCR cross-linking","T cells; Example 8, 1 nM PGE2, 72 hours",~20%
same,"inhibition of proliferation, wild type T cells, TCR cross-linking","T cells; Example 8, 1 nM PGE2, 72 hours",~80%
same,"HPK1 kinase activity (IVK), 293-EP2 transfectants",EP2 receptor,responded robustly
same,"HPK1 kinase activity (IVK), 293-EP4 transfectants",EP4 receptor,responded robustly
same,global tyrosine phosphorylation level,tyrosine phosphorylation; Jurkat whole cell lysates,no detectable change
same,tyrosine phosphorylation of HPK1,"tyrosine phosphorylation; immunoprecipitated HPK1, Jurkat",did not induce detectable tyrosine phosphorylation
